# From the supplement of paper PMC12137928
# Counter-ions that a name gives are not always drawn.
# Tested on: HCT116
# Settings: 72 h
# Summary of the method: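 For IC50 and maximal efficacy, four-parameter Hill fits were used. Input values were CellTiter-Glo luminescence from HCT116 cells seeded at 250 per well in 1536-well plates, normalized to vehicle (0%) and positive control (-100%). Pattern correction followed normalization.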
SMILES,IC50 cell viability (ICRF193 0 nM) [µM],IC50 cell viability (ICRF193 200 nM) [µM]
CC/C=C\C/C=C\C/C=C\C/C=C\C/C=C\CCCC(=O)OCC [Eicosapentaenoic acid ethyl ester],> 45.8,> 45.8
CCCCCCCC/C=C/CCCCCCCC(=O)O [Elaidic Acid],> 45.8,> 45.8
O=c1oc2c(O)c(O)cc3c(=O)oc4c(O)c(O)cc1c4c23 [Ellagic acid],> 45.8,> 45.8
COc1ccc(CN(C(=O)[C@@H](N)Cc2c(C)cc(C(N)=O)cc2C)[C@@H](C)c2ncc(-c3ccccc3)[nH]2)cc1C(=O)O [Eluxadoline],> 45.8,> 45.8
CCC(CC)(CNC(=O)CCCO)c1cccc(OC)c1 [Embutramide],> 45.8,> 45.8
CCOC(=O)c1ccc(OCCN2C[C@H](O)[C@@H](O)[C@H](O)[C@H]2CO)cc1 [Emiglitate],> 45.8,> 45.8
CCOc1c(N2CCOCC2)cnn(C)c1=O [Emorfazone],> 45.8,> 45.8
Nc1nc(=O)n([C@@H]2CS[C@H](CO)O2)cc1F [Emtricitabine],> 45.8,> 45.8
FC(F)OC(F)(F)C(F)Cl (centres undefined) [Enflurane],> 45.8,> 45.8
CCCCCCCCCCCCCCCCCCCCCC(=O)Nc1ccn([C@@H]2O[C@H](CO)[C@@H](O)[C@@H]2O)c(=O)n1 [Enocitabine],> 45.8,> 45.8
CCn1cc(C(=O)O)c(=O)c2cc(F)c(N3CCNCC3)nc21 [Enoxacin],> 45.8,> 45.8
CSc1ccc(C(=O)c2[nH]c(=O)[nH]c2C)cc1 [Enoximone],> 45.8,> 45.8
CCN(CC)C(=O)/C(C#N)=C/c1cc(O)c(O)c([N+](=O)[O-])c1 [Entacapone],> 45.8,> 45.8
C=C1[C@H](CO)[C@@H](O)C[C@@H]1n1cnc2c(=O)[nH]c(N)nc21 [Entecavir (monohydrate)],> 45.8,> 45.8
Cn1cc(C2=C(c3cn(C4CCN(Cc5ccccn5)CC4)c4ccccc34)C(=O)NC2=O)c2ccccc21 [Enzastaurin],> 45.8,> 45.8
CC(/C=C1\SC(=S)N(CC(=O)O)C1=O)=C\c1ccccc1 [Epalrestat],> 45.8,> 45.8
CNC[C@H](O)c1ccc(O)c(O)c1 [Epinephrine],> 45.8,> 45.8
COc1cc(C)nc(-n2nc(C)cc2OC)n1 [Epirizole],> 45.8,> 45.8
C[C@]12C[C@H]3S[C@H]3C[C@@H]1CC[C@@H]1[C@@H]2CC[C@]2(C)[C@@H](O)CC[C@@H]12 [Epitiostanol],> 45.8,> 45.8
COC(=O)[C@@H]1CC2=CC(=O)CC[C@]2(C)[C@@]23O[C@@H]2C[C@@]2(C)[C@@H](CC[C@@]24CCC(=O)O4)[C@H]13 [Eplerenone],> 45.8,> 45.8
CCCCC[C@H](O)/C=C/[C@@H]1[C@H]2C/C(=C/CCCC(=O)O)O[C@H]2C[C@H]1O [Epoprostenol sodium],> 45.8,> 45.8
O=C(O)CSCC(=O)NC1CCSC1=O (centres undefined) [Erdosteine],> 45.8,> 45.8
C[C@@H](CO)NC(=O)[C@@H]1C=C2c3cccc4[nH]cc(c34)C[C@H]2N(C)C1 [Ergobasine],> 45.8,> 45.8
CCC(=O)O[C@H]1[C@H](O[C@@H]2[C@@H](C)[C@H](O[C@H]3C[C@@](C)(OC)[C@@H](O)[C@H](C)O3)[C@@H](C)C(=O)O[C@H](CC)[C@@](C)(O)[C@H](O)[C@@H](C)C(=O)[C@H](C)C[C@@]2(C)O)O[C@H](C)C[C@@H]1N(C)C [Erythromycin propionate],> 45.8,> 45.8

# The remaining lines, values ahead:
IC50 cell viability (ICRF193 0 nM) [µM],IC50 cell viability (ICRF193 200 nM) [µM],SMILES
> 45.8,> 45.8,COC(=O)N[C@H](C(=O)N1CCC[C@H]1c1nc(-c2ccc3c(c2)O[C@@H](c2ccccc2)n2c-3cc3cc(-c4c[nH]c([C@@H]5CCCN5C(=O)[C@@H](NC(=O)OC)C(C)C)n4)ccc32)c[nH]1)C(C)C [Elbasvir]
> 45.8,> 45.8,C=C1/C(=C\C=C2/CCC[C@]3(C)[C@@H]([C@H](C)CCCC(C)(C)O)CC[C@@H]23)C[C@@H](O)[C@@H](OCCCO)[C@@H]1O [Eldecalcitol]
> 45.8,> 45.8,CN1CCC[C@@H]1Cc1c[nH]c2ccc(CCS(=O)(=O)c3ccccc3)cc12 [Eletriptan]
> 45.8,> 45.8,CCOCCn1c(N2CCCN(C)CC2)nc2ccccc21 [Emedastine difumarate]
> 45.8,> 45.8,CC(C)C[C@H]1C(=O)O[C@H](Cc2ccc(N3CCOCC3)cc2)C(=O)N(C)[C@@H](CC(C)C)C(=O)O[C@H](C)C(=O)N(C)[C@@H](CC(C)C)C(=O)O[C@H](Cc2ccc(N3CCOCC3)cc2)C(=O)N(C)[C@@H](CC(C)C)C(=O)O[C@H](C)C(=O)N1C [Emodepside]
> 45.8,> 45.8,C[C@H](N[C@@H](CCc1ccccc1)C(=O)O)C(=O)N1CCC[C@H]1C(=O)O [Enalapril acid]
> 45.8,> 45.8,CCOC(=O)[C@H](CCc1ccccc1)N[C@@H](C)C(=O)N1CCC[C@H]1C(=O)O [Enalapril maleate]
> 45.8,> 45.8,CC(C)(O)CNc1nc(Nc2ccnc(C(F)(F)F)c2)nc(-c2cccc(C(F)(F)F)n2)n1 [Enasidenib]
> 45.8,> 45.8,COc1ccc(C(=O)Nc2ccccc2CCC2CCCCN2C)cc1 (centres undefined) [Encainide hydrochloride]
> 45.8,> 45.8,CCN1CCN(c2cc3c(cc2F)c(=O)c(C(=O)O)cn3C2CC2)CC1 [Enrofloxacin]
> 45.8,> 45.8,O=S(=O)(O)c1ccc2[nH]c(-c3ccccc3)nc2c1 [Ensulizole]
> 45.8,> 45.8,NC1=NCC2c3ccccc3Cc3ccccc3N12 (centres undefined) [Epinastine hydrochloride]
> 45.8,> 45.8,CCOC(CN1CCN(CC(C)C(=O)c2ccccc2)CC1)c1ccccc1 (centres undefined) [Eprazinone dihydrochloride]
> 45.8,> 45.8,CC(C)(C)NC(=O)[C@H]1CC[C@H]2[C@@H]3CC=C4C=C(C(=O)O)CC[C@]4(C)[C@H]3CC[C@]12C [Epristeride]
> 45.8,> 45.8,CCCCc1ncc(/C=C(\Cc2cccs2)C(=O)O)n1Cc1ccc(C(=O)O)cc1 [Eprosartan mesylate]
> 45.8,> 45.8,O=C(C1CCCCC1)N1CC(=O)N2CCCc3ccccc3C2C1 (centres undefined) [Epsiprantel]
> 45.8,> 45.8,N=C(N)NCCCC[C@@H]1NC(=O)CCSSC[C@@H](C(N)=O)NC(=O)[C@@H]2CCCN2C(=O)[C@H](Cc2c[nH]c3ccccc23)NC(=O)[C@H](CC(=O)O)NC(=O)CNC1=O [Eptifibatide]
> 45.8,> 45.8,C[C@@H](O)[C@H]1C(=O)N2C(C(=O)O)=C(S[C@@H]3CN[C@H](C(=O)Nc4cccc(C(=O)O)c4)C3)[C@H](C)[C@H]12 [Ertapenem]
